Assay results as given in patent US6794149B1, “GABA B receptors” (Bayer Aktiengesellschaft, priority 1999, dated 2004).

Tests used:
D-GABA B receptors R1/R2 = test: cAMP measurement in HEK293 cells stably coexpressing D-GABA B R1/R2; format: cell-based, Drosophila melanogaster; conditions: D-GABA B R1/2-transfected HEK293 cells; GABA (100 μM) with forskolin (10 μM), 30 minutes, 37° C.; FIG. 2
Experimental: HEK293 cells were cultured at 5% CO2 and 37° C. in Dulbecco's modified Eagle's medium and 10% foetal calf serum. MBS (Stratagene, La Jolla, USA) was used for the gene transfer, following the manufacturer's instructions. 24 h to 48 h after the gene transfer, the cells were sown intro microtiter plates at various densities. Recombinant cells were selected over 3 to 4 weeks by growth in Dulbecco's modified Eagles medium and 10% foetal calf serum and 700 μg/ml Geneticin (G418, Life Technologies, Karlsruhe) as selection marker. Individual resistant clones were analysed as described below.
HEK293 cell strains were used for determining the cAMP concentration. On the one hand, HEK293 cells stably coexpressed the two Drosophila melanogaster receptors D-GABA B R1 and D-GABA B R2 (D-GABA R1/2). On the other hand, untransfected control cells were incorporated into the assay (control). In each case, the cells were plated into 96-well-plates at a density of 20,000 cells per cavity. […] The cells were lysed for 20 minutes at room temperature with shaking, and the cAMP concentration of the cell lysates were determined in triplicate using the enzyme immunoassay (EIA) kit AK-200 (Biomol, Hamburg, Germany) following the manufacturer's description.

[1] = system: untransfected control cells (HEK293); test: cAMP measurement in untransfected HEK293 control cells; format: cell-based; conditions: GABA (100 μM) with forskolin (10 μM), 30 minutes, 37° C., FIG. 2
Experimental: HEK293 cell strains were used for determining the cAMP concentration. On the one hand, HEK293 cells stably coexpressed the two Drosophila melanogaster receptors D-GABA B R1 and D-GABA B R2 (D-GABA R1/2). On the other hand, untransfected control cells were incorporated into the assay (control). In each case, the cells were plated into 96-well-plates at a density of 20,000 cells per cavity. Control cells were incubated in culture medium (DMEM, 10% FCS, penicillin and streptomycin, 50 U/ml and 50 μg/ml (Life Technologies)) and D-GABA-R1/2 expressing cells in selection medium (culture medium with 0.5 mg/ml Geneticin (G418, Life Technologies)) for 48 hours at 37° C. until a cell density of approximately 80% was reached. Thereupon, the medium was removed, and the cells were washed once with unsupplemented DMEM. After incubation for 30 minutes with IBMX (300 μM) at 37° C., cells were stimulated for 30 minutes with GABA (100 μM) and/or forskolin (10 μM) at 37° C. All incubation steps were carried out in unsupplemented DMEM (Life Technologies). […] The cells were lysed for 20 minutes at room temperature with shaking, and the cAMP concentration of the cell lysates were determined in triplicate using the enzyme immunoassay (EIA) kit AK-200 (Biomol, Hamburg, Germany) following the manufacturer's description.

NCCCC(=O)O [GABA, Gamma-amino-butyric acid]
forskolin-induced cAMP response (intracellular cAMP concentration) (D-GABA B receptors R1/R2): marked reduction
forskolin-induced cAMP response (intracellular cAMP concentration) [1]: unresponsive
